Test results as given in patent EP4663639A1, “SALT AND CRYSTAL OF MNK INHIBITOR COMPOUND AND PREPARATION METHOD THEREFOR” (Novostar Pharmaceuticals, Ltd., priority 2023, dated 2024).

Experiments:
Format in all cases: physicochemical
[1] = Storage stability of crystals at different temperatures, airtight (HPLC purity, XRPD crystal form)
Method: 10 mg polymorph I of compound 1 obtained in Comparative Example 1 and polymorph A of sulfate salt obtained in Example 1 were placed in an airtight environment and stored at 2~8 °C, 25 °C and 60 °C for 1 week and 2 weeks, respectively, and then samples were taken to examine the chemical purity of the samples by HPLC and the crystal morphology of the samples by XRPD. Table 11 Evaluation of storage properties of crystals at different temperatures

[2] = Temperature and humidity stability, open storage (HPLC purity, XRPD crystal form)
Method: The sulfate polymorph A obtained in Example 1 was placed openly under conditions of 25°C/92.5% RH, 25°C/60% RH and 40°C/75% RH to test the temperature and humidity stability. After the samples were stored for 1 week and 4 weeks, respectively, the purity of the samples was tested by HPLC, and the crystalline morphology of the samples was detected by XRPD.
The XRPD results of sulfate polymorph A after 1 and 4 weeks of storage at 25°C/92.5% RH, 25°C/60% RH and 40°C/75% RH are shown in Figures 14 and 15. Table 12 Stability assessment of sulfate polymorph A at different temperatures and humidities

[3] = Moisture adsorption-desorption by DVS; settings: 25 °C
Method: The moisture adsorption-desorption properties of sulfate polymorph A obtained according to Example 1 were examined by DVS. 16 mg of sulfate polymorph A was placed in a metal container, which was placed in an Intrinsic DVS apparatus. A cyclic humidity gradient of 40-95-0-40% RH was set at 25 °C, and the samples were subjected to two successive adsorption-desorption cycles. At each stage, the following equilibrium criteria were used: mass change dm/dt < 0.002% over 5 min, with minimum and maximum equilibrium times of 60 min and 360 min, respectively, at each stage. Table 13 Dynamic water adsorption experiments for sulfate polymorph A

[4] = Solubility in buffers and water (HPLC of supernatant)
Method: Polymorph I of compound 1 obtained in Comparative Example 1, and sulfate polymorph A obtained in Example 1 were weighed in a sample vial, to which 1 mL of hydrochloric acid buffer solution at pH=1.2, acetate buffer solution at pH=4.5, phosphate buffer solution at pH=6.8, and water were added, respectively. The suspension was magnetically stirred at 25°C (1000 r/min).

[5] = 25°C/60%RH for four weeks, open
[6] = 25°C/92.5% RH for four weeks, open
[7] = 25°C/92.5% RH for one week, open
[8] = 40°C/75% RH for four weeks, open
[9] = acetate buffer solution pH 4.5, 25°C, 24 h
[10] = hydrochloric acid buffer solution pH 1.2, 25°C, 24 h
[11] = phosphate buffer solution pH 6.8, 25°C, 24 h

Cc1c2c(c(=O)n3c1C(=O)NC31CCCCC1)Nc1cc(NC(=O)C3CC3)ncc1C2 [Sulfate polymorph A]
crystal structure (XRPD) after storage ([1]; 1 week and 2 weeks at 2~8 °C, 25 °C and 60 °C): did not undergo significant changes
Purity (%) ([1]; Initial): 97.5%
the amount of aromatic hydrocarbons (%) ([1]; Initial): 1.5%
Purity (%) ([1]; One week, 2~8 °C, airtight): 97.5%
the amount of aromatic hydrocarbons (%) ([1]; One week, 2~8 °C, airtight): 1.5%
Purity (%) ([1]; One week, 25 °C, airtight): 97.4%
the amount of aromatic hydrocarbons (%) ([1]; One week, 25 °C, airtight): 1.5%
Purity (%) ([1]; One week, 60 °C, airtight): 97.3%
the amount of aromatic hydrocarbons (%) ([1]; One week, 60 °C, airtight): 1.7%
Purity (%) ([1]; Two weeks, 2~8 °C, airtight): 97.5%
the amount of aromatic hydrocarbons (%) ([1]; Two weeks, 2~8 °C, airtight): 1.5%
Purity (%) ([1]; Two weeks, 25 °C, airtight): 97.5%
the amount of aromatic hydrocarbons (%) ([1]; Two weeks, 25 °C, airtight): 1.5%
Purity (%) ([1]; Two weeks, 60 °C, airtight): 97.1%
the amount of aromatic hydrocarbons (%) ([1]; Two weeks, 60 °C, airtight): 1.8%
Aromatic content (%) ([2]; 25°C/60% RH for one week, open): 1.0%
Purity (%) ([2]; 25°C/60% RH for one week, open): 98.1%
Aromatic content (%) [2, 5]: 1.0%
Purity (%) [2, 5]: 98.1%
Aromatic content (%) [2, 6]: 1.2%
Purity (%) [2, 6]: 97.8%
Aromatic content (%) [2, 7]: 1.0%
Purity (%) [2, 7]: 98.1%
Aromatic content (%) [2, 8]: 1.1%
Purity (%) [2, 8]: 97.9%
Aromatic content (%) ([2]; 40°C/75% RH for one week, open): 1.0%
Purity (%) ([2]; 40°C/75% RH for one week, open): 98.1%
Aromatic content (%) ([2]; Initial): 1.0%
Purity (%) ([2]; Initial): 98.1%
structural stability (purity and XRPD) on storage ([2]; different humidity and temperature conditions, 1 and 4 weeks): high structural stability
hygroscopicity ([3]; 0%RH-95%RH): slightly hygroscopic
moisture absorbed ([3]; range 0%RH-95%RH): 1.2%
1st Desorption Mass change (%) ([3]; Relative humidity 0 %): -0.574%
2nd Adsorption Mass change (%) ([3]; Relative humidity 0 %): -0.574%
1st Desorption Mass change (%) ([3]; Relative humidity 10 %): -0.344%
2nd Adsorption Mass change (%) ([3]; Relative humidity 10 %): -0.368%
1st Desorption Mass change (%) ([3]; Relative humidity 20 %): -0.210%
2nd Adsorption Mass change (%) ([3]; Relative humidity 20 %): -0.246%
1st Desorption Mass change (%) ([3]; Relative humidity 30 %): -0.084%
2nd Adsorption Mass change (%) ([3]; Relative humidity 30 %): -0.133%
1st Adsorption Mass change (%) ([3]; Relative humidity 40 %): 0.000%
1st Desorption Mass change (%) ([3]; Relative humidity 40 %): 0.081%
2nd Adsorption Mass change (%) ([3]; Relative humidity 40 %): -0.017%
1st Adsorption Mass change (%) ([3]; Relative humidity 50 %): 0.085%
1st Desorption Mass change (%) ([3]; Relative humidity 50 %): 0.178%
1st Adsorption Mass change (%) ([3]; Relative humidity 60 %): 0.174%
1st Desorption Mass change (%) ([3]; Relative humidity 60 %): 0.253%
1st Adsorption Mass change (%) ([3]; Relative humidity 70 %): 0.260%
1st Desorption Mass change (%) ([3]; Relative humidity 70 %): 0.327%
1st Adsorption Mass change (%) ([3]; Relative humidity 80 %): 0.357%
1st Desorption Mass change (%) ([3]; Relative humidity 80 %): 0.418%
1st Adsorption Mass change (%) ([3]; Relative humidity 90 %): 0.497%
1st Desorption Mass change (%) ([3]; Relative humidity 90 %): 0.589%
1st Adsorption Mass change (%) ([3]; Relative humidity 95 %): 0.604%
1st Desorption Mass change (%) ([3]; Relative humidity 95 %): 0.604%
solubility at 24 h ([4]; acetate buffer solution pH 4.5, 25°C): 58.6 µg/mL
pH of the solution after solvation saturation has been reached [4, 9]: 2.0
solubility at 24 h ([4]; hydrochloric acid buffer solution pH 1.2, 25°C): 22.5 µg/mL
pH of the solution after solvation saturation has been reached [4, 10]: 1.2
solubility at 24 h ([4]; phosphate buffer solution pH 6.8, 25°C): 21.6 µg/mL
pH of the solution after solvation saturation has been reached [4, 11]: 2.0
solubility at 24 h ([4]; water, 25°C): 64.7 µg/mL
pH of the solution after solvation saturation has been reached ([4]; water, 25°C, 24 h): 1.5

N-(12'-methyl-1',5'-dioxo-1',5',6 ',11'-tetrahydro-2'H-spiro[cyclohexane-1,3'-imidazo[1,5':1,6]pyrido[3,4-b][ 1,6]naphthyridin]-8'-yl)cyclopropane carboxamide [polymorph I of Compound 1]
crystal structure (XRPD) after storage ([1]; 2 weeks at high temperature (60 °C)): the crystal structure changed
crystal structure (XRPD) after storage ([1]; 2 weeks at low temperature (2-8 °C) or room temperature (25 °C)): did not change significantly
Purity (%) ([1]; Initial): 97.4%
the amount of aromatic hydrocarbons (%) ([1]; Initial): 1.6%
Purity (%) ([1]; One week, 2~8 °C, airtight): 97.6%
the amount of aromatic hydrocarbons (%) ([1]; One week, 2~8 °C, airtight): 1.4%
Purity (%) ([1]; One week, 25 °C, airtight): 97.6%
the amount of aromatic hydrocarbons (%) ([1]; One week, 25 °C, airtight): 1.4%
Purity (%) ([1]; One week, 60 °C, airtight): 96.6%
the amount of aromatic hydrocarbons (%) ([1]; One week, 60 °C, airtight): 2.4%
Purity (%) ([1]; Two weeks, 2~8 °C, airtight): 97.5%
the amount of aromatic hydrocarbons (%) ([1]; Two weeks, 2~8 °C, airtight): 1.5%
Purity (%) ([1]; Two weeks, 25 °C, airtight): 97.4%
the amount of aromatic hydrocarbons (%) ([1]; Two weeks, 25 °C, airtight): 1.6%
Purity (%) ([1]; Two weeks, 60 °C, airtight): 96.3%
the amount of aromatic hydrocarbons (%) ([1]; Two weeks, 60 °C, airtight): 2.7%
Solubility (μg/mL) [4, 9]: Not detected
pH of the solution after solvation saturation has been reached [4, 9]: 3.5
Solubility [4, 10]: 18.7 µg/mL
pH of the solution after solvation saturation has been reached [4, 10]: 1.0
Solubility (μg/mL) [4, 11]: Not detected
pH of the solution after solvation saturation has been reached [4, 11]: 6.4
Solubility (μg/mL) ([4]; water, 25°C, 24 h): Not detected
pH of the solution after solvation saturation has been reached ([4]; water, 25°C, 24 h): 6.4
